The values below come from PMC12732608, “Synthesis and Evaluation of Novel 2-((1H-1,2,4-triazol-5-yl)thio)-N-benzylidene-N-phenylacetohydrazide as Potential Antimicrobial Agents” (International Journal of Molecular Sciences, 2025).

The term viability denotes the share of living cells, or the viability signal relative to a control.

Entries after “also recorded” stand apart in the source; their conditions may differ.

The subject of data set [1] is Klebsiella aerogenes ATCC 13048. The data set is described as follows: Growth kinetics assay (OD600) against K. aerogenes. The format is cell-based. Conditions: 0.5 mg/mL, 6 h, K. aerogenes ATCC 13048. As for the experimental part:
(§1) Both Gram-positive and Gram-negative bacterial strains were employed in the experiment to assess antibacterial activities of the synthesized compounds. Gram-negative Klebsiella aerogenes ATCC 13048 and Gram-positive Enterococcus species MVBP-18 strains were used for the study. Bacterial strains of both were cultured in Luria–Bertani (LB) broth for optimal growth conditions. Bacterial cultures were sustained by culturing a fresh colony from newly streaked LB agar plates to 5 mL of LB medium and incubated at 37 °C with shaking at 200 rpm continuously for 16–18 h in order to achieve the logarithmic growth phase. Overnight cultures, after incubation, were standardized by dilution to an OD600 of 0.05, which contained equal bacterial inoculum for any experimental condition. These optimized cultures were employed for subsequent antibacterial tests, such as growth kinetics analysis, to determine the impact of the test compound on bacterial growth. A preliminary screening was conducted in a 96-well microplate format. Standardized bacterial cultures were treated with the compounds at a final concentration of 0.5 mg/mL. Control wells included untreated bacteria and a DMSO control. The plate was incubated at 37°C, with shaking at 200 rpm continuously, and bacterial growth was monitored by measuring the OD600 every hour for six hours using a microplate reader ( BioTek Synergy H1). The assay was performed in triplicate.

Data set [2] is described as follows: MTT cytotoxicity assay on HEK cells. The class given is cell-based. Conditions: human, HEK (human embryonic kidney) cells, compared to DMSO control, read-out: cell viability. As for the experimental part:
Cytotoxicity was evaluated on HEK (human embryonic kidney) cell lines using the MTT assay. […] Cells were grown in a medium that was supplemented with 10% FBS and 1% penicillin–streptomycin. This was incubated at 37 °C in a 5% CO2 atmosphere for 24 h. Cells were seeded at 1 × 10^3 cells/well in 96-well plates and allowed to adhere overnight. They were then treated with the test compounds, dissolved in DMSO, at a uniform concentration. […] The control wells contained untreated cells or cells treated with DMSO alone. After 24 h of treatment, 10 µL of the MTT solution (5 mg/mL) was added to each well and incubated for 3 h to allow formazan crystal formation. A solubilization solution (100 µL) was then added to dissolve the crystals. The absorbance at 570 nm was measured using a microplate reader. Cell viability was calculated as a percentage relative to the untreated control. All assays were performed in triplicate.
On the technique in general: Tetrazolium assays rely on reduction of a dye to a coloured formazan, in cell work by metabolically active cells.

Details of data set [3]: method as in earlier work. Conditions: comparable to ciprofloxacin; cited from earlier work.
Data set [4] has as its system Enterococcus species MVBP-18. Briefly: Growth kinetics assay (OD600) against Enterococcus sp. The class given is cell-based. To be noted: 0.5 mg/mL, 6 h, Enterococcus sp. MV BP 18. Here is the method: as §1, with “The assay was performed in triplicate.” left out
Another data set concerns K. aerogenes. Briefly: CFU enumeration (time-kill) against K. aerogenes. The class given is cell-based, Klebsiella aerogenes. To be noted: for effect on viable bacterial count (CFU assay), in words: within 3 h; for terminal viable bacterial count: terminal values (3 h time course). Here is the method:
as §1, with “[…] Bacterial” for “A preliminary screening was conducted in a 96-well microplate format. Standardized bacterial cultures were treated with the compounds at a final concentration of 0.5 mg/mL. Control wells included untreated bacteria and a DMSO control. The plate was incubated at 37°C, with shaking at 200 rpm continuously, and bacterial”, “both” for “measuring”, “readings over 4–7 h and colony-forming unit (CFU) enumeration. For CFU counting, aliquots from the wells were serially diluted, plated on LB agar, and incubated overnight at 37 °C.” for “every hour for six hours using a microplate reader ( BioTek Synergy H1).”, “resulting colonies were counted to determine the CFU/mL. All validation experiments were also conducted” for “assay was performed”

The test system of the next data set is Enterococcus sp. The data set is described as follows: CFU enumeration (time-kill) against Enterococcus sp. The format is cell-based. Conditions: over 3 h incubation. As for the experimental part:
as §1, with “[…] Bacterial” for “A preliminary screening was conducted in a 96-well microplate format. Standardized bacterial cultures were treated with the compounds at a final concentration of 0.5 mg/mL. Control wells included untreated bacteria and a DMSO control. The plate was incubated at 37°C, with shaking at 200 rpm continuously, and bacterial”, “both” for “measuring”, “readings over 4–7 h and colony-forming unit (CFU) enumeration. For CFU counting, aliquots from the wells were serially diluted, plated on LB agar, and incubated overnight at 37 °C.” for “every hour for six hours using a microplate reader ( BioTek Synergy H1).”, “resulting colonies were counted to determine the CFU/mL. All validation experiments were also conducted” for “assay was performed”

The next data set has as its system S. aureus. Set-up: method as in PMID 22906969. Conditions: comparable to ampicillin; cited from earlier work.
The test system of a further data set is E. coli. Set-up: method as in PMID 22906969. To be noted: comparable to ampicillin; cited from earlier work.

With `O=C(CSc1nc[nH]n1)N(/N=C/c1cccc(Br)c1)c1ccccc1` [Compound 4h, E-2-((1H-1,2,4-triazol-3-yl)thio)-N′-(3-bromobenzylidene)-N-phenylacetohydrazide], the “growth inhibition (OD600 growth kinetics)” value (shortened to “growth inhibition”) in data set [1] is given as “mild inhibitory activities”. The viability at 24 h, 0.5 mg/mL in data set [2] was found to be 73%.

`O=C(CSc1nc[nH]n1)N(/N=C/c1ccccc1Cl)c1ccccc1` [Compound 4b, E-2-((1H-1,2,4-triazol-3-yl)thio)-N′-(2-chlorobenzylidene)-N-phenylacetohydrazide]: in data set [1], the “growth inhibition” value is on record as “mild inhibitory activities”. Further, the viability at 24 h, 0.5 mg/mL in data set [2] came out at 68.7%.

With `Cc1ccc(-n2c(SCC(=O)NC3CCCCC3)nnc2-c2ccncc2)cc1` [N-Cyclohexyl-2-[5-(4-pyridyl)-4-(p-tolyl)-4H-1,2,4-triazole-3-sulfanyl]-acetamide], the antibacterial activity result in data set [3] is given as “good level of inhibition”.

On to `O=C(CSc1nc[nH]n1)N(/N=C/c1ccccc1F)c1ccccc1` [Compound 4g, E-2-((1H-1,2,4-triazol-3-yl)thio)-N′-(2-fluorobenzylidene)-N-phenylacetohydrazide], for which the figures for the “growth inhibition” value in data set [1] and in data set [4] were “most significant growth inhibition; also recorded: highest degree of growth inhibition” and “most potent inhibitor”, respectively. For the same compound, the viable counts result in the data set on K. aerogenes (at 2 h, maintained at 3 h) is “below 10^7 CFU/mL”. Besides, in the data set with K. aerogenes, the “effect on viable bacterial count (CFU assay), in words” value (“effect on viable bacterial count” for short) was “reduced viable numbers by several orders of magnitude”. The viable bacterial counts in the data set on Enterococcus sp. is recorded as ~ 10^7 CFU/mL. Besides, in data set [2], the viability at 24 h, 0.5 mg/mL came to 96%.

On to `O=C(CSc1nc[nH]n1)N(/N=C/c1cccs1)c1ccccc1` [Compound 4n, E-2-((1H-1,2,4-triazol-3-yl)thio)-N-phenyl-N′-(thiophen-2-ylmethylene)acetohydrazide], for which the “growth inhibition” value in data set [1] is “most significant growth inhibition”. In addition, in the data set with K. aerogenes, the “terminal viable bacterial count” value is 10^8–10^9 CFU/mL and the “effect on viable bacterial count” value is given as “moderate-level reduction”. Besides, the viability at 24 h, 0.5 mg/mL in data set [2] was found to be 52.8%.

As for `NNC(=O)CSc1nc(N=Cc2ccc(Br)cc2)n[nH]1` [2-{3-[4-bromobenzylidene)amino]-1H-1,2,4-triazol-5-ylthio}acetohydrazide], the antibacterial activity entry with S. aureus and in the data set on E. coli was “strong antibacterial activity” each time.

Regarding `O=C(CSc1nc[nH]n1)N(/N=C/c1ccc(Br)cc1)c1ccccc1` [Compound 4e, E-2-((1H-1,2,4-triazol-3-yl)thio)-N′-(4-bromobenzylidene)-N-phenylacetohydrazide], in data set [2], the viability at 24 h, 0.5 mg/mL came to 87.4%.

In the case of `O=C(CSc1nc[nH]n1)N(/N=C/c1ccccc1)c1ccccc1` [Compound 4a, E-2-((1H-1,2,4-triazol-3-yl)thio)-N′-benzylidene-N-phenylacetohydrazide], the viability at 24 h, 0.5 mg/mL in data set [2] came to 72.6%.

Consider `COc1cc(/C=N/N(C(=O)CSc2nc[nH]n2)c2ccccc2)cc(OC)c1OC` [Compound 4l, E-2-((1H-1,2,4-triazol-3-yl)thio)-N-phenyl-N′-(3,4,5-trimethoxybenzylidene)acetohydrazide], for which the “growth inhibition” value in data set [1] is “mild inhibitory activities”. Also, in the data set on K. aerogenes, the “terminal viable bacterial count” value was 10^8–10^9 CFU/mL and the “effect on viable bacterial count” value is recorded as “moderate-level reduction”. For the same compound, the viability at 24 h, 0.5 mg/mL in data set [2] turned out to be 55.8%.

Consider `O=C(CSc1nc[nH]n1)N(/N=C/c1c(Cl)cccc1Cl)c1ccccc1` [Compound 4j, E-2-((1H-1,2,4-triazol-3-yl)thio)-N′-(2,6-dichlorobenzylidene)-N-phenylacetohydrazide], for which, in data set [2], the viability at 24 h, 0.5 mg/mL was found to be 71.6%.
